Assay results reported in PubChem BioAssay AID651973 (The Scripps Research Institute Molecular Screening Center, 2013).
Calls of active or inactive are those of the source. The rule behind the calls is not given here.

Test system: Cell-based VP16 transactivation luciferase reporter, luminescence
Assay: VP16 transactivation reporter inhibitors, dose response, counter-screen for LRH-1 inverse agonist project, cell-based, luminescence (AID 651973)

| SMILES | IC50 |
| --- | --- |
| CCC(C)(C)n1nnnc1CN1CCC(O)(c2cccc(C(F)(F)F)c2)CC1 | > 35.9 µM (inactive) |
| COCC(=O)NC1CCN(CC(=O)Nc2ccc(OC)cc2[N+](=O)[O-])CC1 | > 35.9 µM (inactive) |
| Cc1no[n+]([O-])c1COc1ccccc1/C=N/n1nnnc1N | > 35.9 µM (inactive) |
| CC(O)(c1cccc(F)c1)c1nc(-c2ccc(S(C)(=O)=O)cc2)cs1 (stereo not drawn) | 16.2 µM (inactive) |
| CC(=O)Nc1ccc(N=c2cc([N+](=O)[O-])cc(Cl)n2O)cc1 | > 35.9 µM (inactive) |
| O=C(Nc1ccc(Cc2ccncc2)cc1)c1cccc([N+](=O)[O-])c1 | > 35.9 µM (inactive) |
| CCCc1cc(=O)oc2c(C)c(OCC(=O)NCCN3CCOCC3)ccc12 | > 35.9 µM (inactive) |
| Cc1ccc(C)c(NC(=O)CSc2nc3[nH]ncc3c(=O)[nH]2)c1 | > 35.9 µM (inactive) |
| O=C(CSc1nncc(=O)[nH]1)Nc1cccc([N+](=O)[O-])c1 | 34.4 µM (inactive) |
| COc1ccc(OCCNC(=O)C2(C)CCN2Cc2ccc3ccccc3c2)cc1 (stereo not drawn) | 23.8 µM (inactive) |
| Cc1cc(C)c2nc(NC(=O)c3ccc([N+](=O)[O-])o3)sc2c1 | > 35.9 µM (inactive) |
| CCOc1ccc(NC(=O)CN2CCN(CC(=O)Nc3ccc(OC)cc3)CC2)cc1 | > 35.9 µM (inactive) |
| COC(=O)c1ccc(NC(=O)COc2cccc(-n3cnnn3)c2)cc1 | > 35.9 µM (inactive) |
| COc1ccc(NC(=O)CN2C(=O)NC3(CCCC3)C2=O)cc1 | > 35.9 µM (inactive) |
| COc1cc(/C=N/NC(N)=S)ccc1OCC(=O)Nc1ccc(C)cc1 | > 35.9 µM (inactive) |
| O=C(Nc1ccccc1)c1oc2ccccc2c1NC(=O)C1CC1 | > 35.9 µM (inactive) |
| CCc1ccccc1NC(=O)CSc1nnc([C@@H]2CCCN2C(=O)OC(C)(C)C)o1 | > 35.9 µM (inactive) |
| COc1ccc(C2(C)NC(=O)N(CC(=O)Nc3ccc(C)cc3Br)C2=O)cc1OC (stereo not drawn) | > 35.9 µM (inactive) |
| COc1ccc(CCNC(=O)CSc2nc3[nH]c(=O)cc(O)c3s2)cc1 | > 35.9 µM (inactive) |
| CCc1cc(=O)oc2c(C)c(OCC(=O)NCCCN3CCOCC3)ccc12 | > 35.9 µM (inactive) |
| CCOc1ccc(NC(=O)CSc2nncc(=O)[nH]2)cc1 | > 35.9 µM (inactive) |
| COC(=O)c1ccc(N2CCCCC2)c(NC(=O)c2ccco2)c1 | 13.3 µM (inactive) |
| COc1ccc(NC(=O)CSc2nc(N)c(-c3ccccc3)c(=O)[nH]2)cc1 | > 35.9 µM (inactive) |
| CC(=O)Nc1ccc(NC(=O)CSc2nnnn2C2CCCCC2)cc1 | > 35.9 µM (inactive) |

| SMILES | IC50 |
| --- | --- |
| CCn1c(SCC(=O)Nc2ccc(Cl)cc2)nnc1C1CC1 | > 35.9 µM (inactive) |
| CCCN(CC(=O)Nc1ccc(C(N)=O)cc1)CC(=O)Nc1ccccc1C | > 35.9 µM (inactive) |
| CC(C)(Oc1ccc(Cl)cc1)C(=O)OCC(=O)NCCc1ccccc1 | > 35.9 µM (inactive) |
| COC(=O)c1ccc(NC(=O)CSc2nn3c(=O)c(C)nnc3s2)cc1 | > 35.9 µM (inactive) |
| CCOCC(=O)Nc1ccc(S(=O)(=O)NCCc2ccccc2)cc1 | > 35.9 µM (inactive) |
| O=C(COc1ccc2c3c(c(=O)oc2c1)CCCC3)NCCN1CCOCC1 | > 35.8 µM (inactive) |
| CCC(C)NC(=O)c1ccc2c(c1)N(Cc1ccccc1)C(=O)CS2 (stereo not drawn) | > 35.9 µM (inactive) |
| CC(=O)Nc1cc(-c2ccc(S(C)(=O)=O)cc2)cn2c(-c3ccc(F)cc3)cnc12 | > 35.9 µM (inactive) |
| COc1ccc(NC(=O)CSc2ncnc3[nH]ncc23)cc1 | > 35.9 µM (inactive) |
| CCOc1ccc(NC(=O)COC(=O)c2ccc3c(c2)OCCO3)cc1 | > 35.9 µM (inactive) |
| COc1ccc(NC(=O)CS(=O)(=O)c2ccc(C)cc2)c(OC)c1 | > 35.9 µM (inactive) |
| COc1ccc(NS(=O)(=O)c2ccc(OCC(=O)N3CCN(C)CC3)cc2)cc1Cl | > 35.9 µM (inactive) |
| COc1ccc(NC(=O)CSc2nc3nc(C)cc(C)c3c(=O)[nH]2)cc1 | > 35.9 µM (inactive) |
| COCCNc1ccc([N+](=O)[O-])cc1C(=O)NC1CCCc2ccccc21 (stereo not drawn) | > 35.9 µM (inactive) |
| CC(=O)Nc1cc(-c2cccc(F)c2)cn2c(-c3ccc(S(C)(=O)=O)cc3)cnc12 | 18.7 µM (inactive) |
| COc1ccc(NC(=O)COC(=O)c2cc(S(=O)(=O)N3CCCC3)ccc2O)cc1 | > 35.9 µM (inactive) |
| Cc1ccc(C)c(NC(=O)CSc2nnc(-c3n[nH]c4ccccc34)o2)c1 | > 35.9 µM (inactive) |
| Cc1no[n+]([O-])c1COc1ccc(/C=N/n2nnnc2N)cc1 | > 35.9 µM (inactive) |
| O=C(NCc1ccco1)c1nn(-c2ccccc2)c(=O)c2ccccc12 | > 35.9 µM (inactive) |
| CCC(=O)Nc1nnc(SCC(=O)NCCc2ccc(OC)c(OC)c2)s1 | > 35.9 µM (inactive) |
| Cc1onc(NC(=O)c2ccc([N+](=O)[O-])o2)c1Br | > 35.9 µM (inactive) |
| O=C1CCCN2N=C(SCC(=O)Nc3ccc(Br)cc3)SC2=N1 | > 35.9 µM (inactive) |
| Cc1cccc(NC(=O)COC(=O)Cc2cccs2)c1C | > 35.9 µM (inactive) |
| CC(Oc1ccc(S(=O)(=O)N2CCCC2)cc1[N+](=O)[O-])C(=O)NC(C)c1ccccc1 (stereo not drawn) | 20.1 µM (inactive) |

| SMILES | IC50 |
| --- | --- |
| Cc1ccc(NC(=O)COC(=O)C(NS(=O)(=O)c2ccc(Cl)cc2)C(C)O)c(Br)c1 (stereo not drawn) | > 35.9 µM (inactive) |
| CCOc1ccc(NC(=O)COC(=O)C2CCC(=O)N2)c([N+](=O)[O-])c1 (stereo not drawn) | > 35.8 µM (inactive) |
| Cc1sc(NC(=O)C(C)C)c(C(=O)Nc2ccccc2)c1C | > 35.9 µM (inactive) |
| COc1ccc(CCNC(=O)COC(=O)C23CC4CC(CC(Br)(C4)C2)C3)cc1 | > 35.9 µM (inactive) |
| COc1ccc(S(=O)(=O)Nc2ccc3c(c2)n(C)c(=O)n3C)cc1F | > 35.9 µM (inactive) |
| COc1cc(/C=N/n2nnnc2N)ccc1OCc1c(C)no[n+]1[O-] | > 35.9 µM (inactive) |
| CCCc1cc(=O)oc2cc(OCC(=O)NCc3ccccn3)ccc12 | > 35.9 µM (inactive) |
| CN(C)S(=O)(=O)c1cccc(C(=O)OCC(=O)Nc2ccc3c(c2)OCCO3)c1 | > 35.9 µM (inactive) |
| CCCc1cc(=O)oc2c(C)c(OCC(=O)NC3CC(C)(C)NC(C)(C)C3)ccc12 | > 35.9 µM (inactive) |
| Cc1ccccc1Nc1nc(-c2cccnc2)nc2ccccc12 | 34.6 µM (inactive) |
| CCOc1ccc(Cc2nnc(SCC(=O)Nc3ccc(C(C)=O)cc3)[nH]c2=O)cc1 | > 35.9 µM (inactive) |
| NC(=O)C1CCN(C(=O)COc2ccc3c4c(c(=O)oc3c2)CCC4)CC1 | > 35.9 µM (inactive) |
| CCCN(CC(=O)Nc1ccc(C(C)=O)cc1)CC(=O)Nc1ccccc1C | > 35.9 µM (inactive) |
| COc1cc(C(=O)Nc2ccccc2C2COC(=O)C2=N)cc(OC)c1OC (stereo not drawn) | > 35.9 µM (inactive) |
| CCCN(CC(=O)Nc1ccccc1C)CC(=O)Nc1ccc(Br)cc1F | > 35.9 µM (inactive) |
| O=C(Cc1ccc(S(=O)(=O)N2CCCC2)s1)Nc1cccc([N+](=O)[O-])c1 | 14.1 µM (inactive) |
| CC1=CC(O)C(O)C2(C)C1CC1OC(=O)CC3C(C)C(O)C(=O)C2C13CO (stereo not drawn) | > 35.9 µM (inactive) |
| Cc1nn(Cc2ccccc2)c(C)c1C(=O)OCC(=O)Nc1ccccc1SCC#N | > 35.9 µM (inactive) |
| COc1ccc(-n2c(/C=C(\C)O)nc(=O)c3c(C)cc(C)nc32)cc1 | > 35.9 µM (inactive) |
| CS(=O)(=O)c1ccc(-c2cc(NC=O)c3ncc(-c4ccc(F)cc4)n3c2)cc1 | 14.6 µM (inactive) |
| Cc1cc(C)c2c(=O)[nH]c(SCC(=O)Nc3ccc(Br)cc3)nc2n1 | > 35.9 µM (inactive) |
| CC1CCCN(c2cc(N(C)CCO)c([N+](=O)[O-])c3nonc23)C1 (stereo not drawn) | > 35.9 µM (inactive) |
| Cc1cc(NC(=O)c2ccc([N+](=O)[O-])o2)ccc1NC(=O)c1ccco1 | > 35.9 µM (inactive) |
| C[C@H](CO)N1C[C@H](C)[C@H](CN(C)Cc2ccncc2)Oc2cc(-c3ccccc3F)ccc2S1(=O)=O | 14.6 µM (inactive) |

| SMILES | IC50 |
| --- | --- |
| Cc1onc(-c2c(F)cccc2Cl)c1C(=O)O/N=C(\N)c1ccc([N+](=O)[O-])o1 | > 35.9 µM (inactive) |
| CCOc1ccc(NC(=O)COC(=O)CC2CCCCC2)cc1 | > 35.9 µM (inactive) |
| COc1ccc(CCNC(=O)COC(=O)C23CC4CC(CC(C4)C2)C3)cc1 | > 35.9 µM (inactive) |
| O=C(CSc1n[nH]c(-c2ccccc2)n1)Nc1ccc(F)cc1F | > 35.9 µM (inactive) |
| Cc1c(NC(=S)NC(=O)c2ccc(Cl)cc2)c(=O)n(-c2ccccc2)n1C | > 35.9 µM (inactive) |
| COc1ccc(NC(=O)CSc2sc3c(O)cc(=O)[nH]c3c2C#N)c(OC)c1 | > 35.9 µM (inactive) |
| Cc1no[n+]([O-])c1COc1ccc(/C=C2\NC(=S)NC2=O)cc1 | > 35.9 µM (inactive) |
| CCCNC(=O)c1sc2c(c1C(=O)Nc1ccccn1)CCCC2 | > 35.9 µM (inactive) |
| Cc1ccc(-c2csc(NC(=O)c3ccc([N+](=O)[O-])o3)n2)cc1 | > 35.9 µM (inactive) |
| Cc1cccc(NC(=O)COC(=O)CN2C(=O)c3ccccc3C2=O)c1C | > 35.9 µM (inactive) |
| Cc1ccc(NC(=O)CSc2nnc([C@@H]3CCCN3C(=O)OC(C)(C)C)o2)c(C)c1 | > 35.9 µM (inactive) |
| COc1ccc(NC(=O)CSc2nnc3ccc(-c4cccnc4)nn23)cc1OC | > 35.9 µM (inactive) |
| NC(=O)C1CCN(C(=O)COc2ccc3c4c(c(=O)oc3c2)CCCC4)CC1 | > 35.9 µM (inactive) |
| O=C(CCl)NCCN1C(=O)S/C(=C\c2cccnc2)C1=O | 26.8 µM (inactive) |
| NS(=O)(=O)c1ccc(CCNC(=O)COc2ccc3c4c(c(=O)oc3c2)CCC4)cc1 | > 35.9 µM (inactive) |
| COc1ccc(Nc2nc(NCCN3CCOCC3)nc(Nc3ccc(OC)cc3)n2)cc1 | > 35.9 µM (inactive) |
| O=C(CN1C(=O)NC2(CCCC2)C1=O)NCCc1ccc(F)cc1 | > 35.9 µM (inactive) |
| Cc1ccc(NC(=O)COC(=O)C(NS(=O)(=O)c2ccc(Cl)cc2)C(C)O)cc1C (stereo not drawn) | > 35.9 µM (inactive) |
| CCOc1ccc(NC(=O)CSc2nccn(-c3ccc4c(c3)OCCO4)c2=O)cc1 | > 35.9 µM (inactive) |
| COc1ccccc1NC(=O)c1ccc(NC(=O)CSc2nnnn2C)cc1 | > 35.9 µM (inactive) |
| Cc1cccc(NC(=O)CSc2nc3[nH]ncc3c(=O)[nH]2)c1C | > 35.9 µM (inactive) |
